According to patent publication US5886178A, “3-aroylbenzylpyridazinone derivatives” (Syntex (U.S.A.) Inc., priority 1997, dated 1999):

What was measured:
COX II = biological target: T1, COX II (Homo sapiens, UniProt P35354); test: Inhibition of COX II in vitro, partially purified enzyme, radiometric assay; format: biochemical; design: made in house; conditions: 20 micromolar arachidonic acid
T1 sequence (P35354 18-604): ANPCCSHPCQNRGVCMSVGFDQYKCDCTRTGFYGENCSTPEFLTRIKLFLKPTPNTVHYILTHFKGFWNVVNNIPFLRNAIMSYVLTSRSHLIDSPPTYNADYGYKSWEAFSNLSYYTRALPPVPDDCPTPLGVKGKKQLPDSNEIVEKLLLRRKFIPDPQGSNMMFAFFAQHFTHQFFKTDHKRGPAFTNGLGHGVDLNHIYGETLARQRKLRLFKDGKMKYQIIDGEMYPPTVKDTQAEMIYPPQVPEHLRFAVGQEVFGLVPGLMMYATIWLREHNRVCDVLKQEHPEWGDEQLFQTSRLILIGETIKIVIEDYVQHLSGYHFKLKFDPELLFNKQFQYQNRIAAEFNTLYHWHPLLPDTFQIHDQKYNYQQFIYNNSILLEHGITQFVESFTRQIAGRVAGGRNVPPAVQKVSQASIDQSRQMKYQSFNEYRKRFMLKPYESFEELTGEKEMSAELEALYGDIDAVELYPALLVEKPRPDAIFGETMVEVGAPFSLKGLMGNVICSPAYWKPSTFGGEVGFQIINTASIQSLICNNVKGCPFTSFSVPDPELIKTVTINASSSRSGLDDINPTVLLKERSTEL
Protocol: (§1) The COX I and COX II inhibitory activity of compounds of this invention in vitro was determined using partially purified COX I and COX II enzymes, prepared as described in J. Barnett et al, Biochim. Biophys.
(§2) COX I and COX II samples were diluted with Tris-HCl buffer (50 mM Tris-HCl, pH 7.9) containing 2 mM EDTA and 10% glycerol and reconstituted by incubating first with 2 mM phenol for 5 minutes and then with 1 micromolar hematin for an additional 5 minutes. 125 μl of the reconstituted COX I or COX II enzyme were preincubated for 10 minutes at room temperature in a shaking water bath with the compounds of the invention dissolved in 2-15 μl of DMSO or the carrier vehicles (control samples). The enzyme reaction was initiated by adding 25 μl of 1-[14C]arachidonic acid (80,000-100,000 cpm/tube; 20 micromolar final concentration) and the reaction was allowed to continue for an additional 45 seconds. The reaction was terminated by adding 100 μl of 2N HCl and 750 μl water. An aliquot (950 μl) of the reaction mixture was loaded onto a 1 ml C18 Sep-Pak column (J. T. Baker, Phillipsburg, N.J.) which had been previously washed with 2-3 ml methanol and equilibrated with 5-6 ml distilled water. Oxygenated products were quantitatively eluted with 3 ml of acetonitrile/water/acetic acid (50:50:0.1, v/v) and the radioactivity in the eluate determined in a scintillation counter.

[1] = tested on: prostaglandin E2 synthesis; test: Inhibition of eicosanoid (PGE2) synthesis in vivo, carrageenan air-pouch model in rats; design: species or system rat; conditions: oral, male rats
Protocol: In this assay, an air-pouch is created in the rat and the PGE2 levels in the air-pouch exudate are measured by enzyme immunoassay. Briefly, male rats were anesthetized using a 60:40 CO2 :O2 mixture and subsequently injected subcutaneously with 20 ml of sterilized air, under aseptic conditions, in the proximal area of the dorsum. This injection of sterile air causes the creation of a subcutaneous "air pouch". The next day, a further 10 ml of sterile air was injected into the previously formed pouch using the same technique. […] Control rats received vehicle alone. After 30 minutes, 5 ml of a 0.5% solution of carrageenan (Sigma, Lambda Type IV) was injected into the air pouch. The rats were euthanized 3 hr after the compound administration. […] The total exudate volume was recorded, and the samples were analyzed for PGE2 and 6-keto PGF1 by ELISA (Titerzyme®, PerSeptive Diagnostics) and TxB2 by radioimmuno assay (New England Nuclear Research, Catalog No. NEK-037), according to the manufacturer's directions.
The mean concentrations of PGE2 were calculated for each group. The anti-inflammatory activity of test materials is expressed as the percent inhibition of PGE2 formation in the test group relative to the control group.

COX I = COX I (Homo sapiens, UniProt P23219); test: Inhibition of COX I in vitro, partially purified enzyme, radiometric assay; format: biochemical; design: made in house; conditions: 20 micromolar arachidonic acid
Sequence of COX I (P23219 24-599): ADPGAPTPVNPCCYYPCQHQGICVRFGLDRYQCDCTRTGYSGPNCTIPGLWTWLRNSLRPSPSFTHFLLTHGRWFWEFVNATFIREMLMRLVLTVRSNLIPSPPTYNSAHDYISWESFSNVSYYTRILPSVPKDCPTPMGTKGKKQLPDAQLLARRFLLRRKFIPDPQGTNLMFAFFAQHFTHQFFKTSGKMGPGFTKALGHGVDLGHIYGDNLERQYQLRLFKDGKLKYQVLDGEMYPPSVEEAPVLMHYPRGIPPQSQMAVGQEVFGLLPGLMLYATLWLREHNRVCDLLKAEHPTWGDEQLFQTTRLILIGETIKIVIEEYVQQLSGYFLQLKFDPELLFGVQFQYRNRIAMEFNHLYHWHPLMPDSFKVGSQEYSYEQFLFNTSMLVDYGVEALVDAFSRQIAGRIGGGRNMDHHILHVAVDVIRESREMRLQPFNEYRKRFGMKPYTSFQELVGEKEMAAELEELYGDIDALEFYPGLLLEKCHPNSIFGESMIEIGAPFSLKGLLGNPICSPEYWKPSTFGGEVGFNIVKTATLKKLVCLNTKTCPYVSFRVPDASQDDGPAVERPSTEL
Protocol: as §1, §2

[2] = Acetic Acid-induced Rat Writhing Assay (analgesic activity); format: in vivo; conditions: 10 mg/Kg, oral, male Sprague Dawley rats
Source text: The analgesic activity of compounds of this invention may be determined by the Acetic Acid-induced Rat Writhing Assay, using a modification of the method described in Berkenkopf, J. W. and Weichman, B. M. "Production of Prostacyclin in Mice following Intraperitoneal Injection of Acetic Acid, Phenylbenzoquinone and Zymosan: Its Role in the Writhing Response". Prostaglandins: 36: 693-70 (1988). This assay is one of several acute assays which have been used to assess the analgesic activity of NSAIDs, and is considered predictive of human efficacy. The test materials were administered orally to male Sprague Dawley rats in a volume of 1 ml/100 g body weight as solutions or suspensions in an aqueous vehicle containing 0.9% NaCl, 0.5% sodium carboxymethyl-cellulose, 0.4% polysorbate 80, 0.9% benzyl alcohol and 97.3% water. Control rats received vehicle alone. One hour after compound administration, 0.3 ml/100 g body weight of 0.75% solution of acetic acid was injected intraperitoneally. The acetic acid injection induces a series of characteristic writhing responses, which were counted over the period between 15 and 30 minutes after the injection. The analgesic activity of test materials is expressed as the percentage inhibition of writhing in the test group relative to the control group.

[3] = Carrageenan-induced paw edema in the rat (anti-inflammatory activity); format: in vivo; conditions: 3 h, 10 mg/Kg, oral, female rats, read-out: % inhibition of increase in hind paw weight
Protocol: The anti-inflammatory activity of compounds of this invention was determined by measuring the inhibition of carrageenan-induced paw edema in the rat, using a modification of the method described in Winter C. k et al (1962) "Carrageenan-Induced Edema in Hind Paw of the Rat as an Assay for Anti-inflammatory Drugs". Proc. Soc. Exp. Biol. Med. 111: 544-547. This assay has been used as a primary in vivo screen for anti-inflammatory activity of most NSAIDs, and is considered predictive of human efficacy. Briefly, test materials were administered orally to female rats in a volume of 1 ml prepared as solutions or suspensions in an aqueous vehicle containing 0.9% NaCl, 0.5% sodium carboxymethyl-cellulose, 0.4% polysorbate 80, 0.9% benzyl alcohol and 97.3% distilled water. Control rats received vehicle alone. After 1 hr 0.05 ml of a 0.5% solution of Carrageenan (Type IV Lambda, Sigma Chemical Co.) in 0.9% saline was injected into the subplantar region of the right hind paw. Three hours later the rats were euthanized in a carbon dioxide atmosphere; hind paws were removed by severing at the tatso-crural joint; and the left and right paws were weighed. The increase in weight of the right paw over the left paw was obtained for each animal and the mean increases were calculated for each group. The anti-inflammatory activity of the test materials is expressed as the percent inhibition of the increase in hind paw weight of the test group relative to the vehicle-dosed control group.
The anti-inflammatory activities (expressed as % inhibition) of some of the compounds of the invention were: […]

[4] = Alzheimer's patients; Rogers, J., et. al., Neurology, (1993), 43, 1609; cited from earlier work

Row | SMILES | IC50 (COX II) [µM] | % inhibition of air pouch PGE2 formation ([1]; 10 mg/Kg) [%] | IC50 (COX I) [µM] | % inhibition of writhing responses [2] [%] | inhibition in vivo at 10 mg/kg [3] [%] | % inhibition of air pouch PGE2 formation ([1]; 2-5 mg/Kg) [%] | effect on cognitive decline [4]
1 | COc1ccc(C(=O)c2cccc(Cc3ccc(=O)[nH]n3)c2Cl)cc1 [Cpd 2, 6-[3-(4-methoxybenzoyl)-2-chlorobenzyl]-2H-pyridazin-3-one] | 0.1 | 32 | 57 | 9 | 20 | – | –
2 | COc1ccc2c(c1)c(CC(=O)O)c(C)n2C(=O)c1ccc(Cl)cc1 [Indomethacin, reference compound] | – | – | – | – | – | > 70 | inhibit the cognitive decline of Alzheimer's patients
